# Source: ChEMBL document CHEMBL2021864, “Investigating the activity of quinine analogues versus chloroquine resistant Plasmodium falciparum” (Bioorg Med Chem, 2012)
# System: Plasmodium falciparum
# Assay: microbe, parasite or virus in culture
# Format: functional, organism-based
# Details: Dd2, 72 h
# Description: Antimalarial activity against chloroquine resistant Plasmodium falciparum Dd2 after 72 hrs by SYBP Green I dye staining
row,Structure (SMILES),IC50 [nM]
1,CCOC(=O)c1ccc(/C=C/[C@H]2CN3CC[C@H]2C[C@H]3[C@H](O)c2ccnc3ccccc23)cc1,198
2,O[C@H](c1ccnc2ccccc12)[C@@H]1C[C@@H]2CCN1C[C@@H]2/C=C/c1ccc(C(F)(F)F)cc1,223
3,O[C@H](c1ccnc2ccccc12)[C@@H]1C[C@@H]2CCN1C[C@@H]2/C=C/c1cccc(C(F)(F)F)c1,928
4,COc1ccc2nccc([C@H](O)[C@H]3C[C@@H]4CCN3C[C@@H]4/C=C/c3ccc(-c4ccccc4)cc3)c2c1,202
5,CCOC(=O)c1ccc(/C=C/[C@H]2CN3CC[C@H]2C[C@@H]3[C@@H](O)c2ccnc3ccc(OC)cc23)cc1,203
6,COc1ccc2nccc([C@H](O)[C@H]3C[C@@H]4CCN3C[C@@H]4/C=C/c3ccc(C(F)(F)F)cc3)c2c1,2350
7,COc1ccc2nccc([C@H](O)[C@H]3C[C@@H]4CCN3C[C@@H]4/C=C/c3cccc(C(F)(F)F)c3)c2c1,182
8,O[C@@H](c1ccnc2ccccc12)[C@H]1C[C@@H]2CCN1C[C@@H]2/C=C/c1ccc(-c2ccccc2)cc1,243
9,CCOC(=O)c1ccc(/C=C/[C@H]2CN3CC[C@H]2C[C@@H]3[C@@H](O)c2ccnc3ccccc23)cc1,263
10,O[C@@H](c1ccnc2ccccc12)[C@H]1C[C@@H]2CCN1C[C@@H]2/C=C/c1ccc(C(F)(F)F)cc1,983
11,O[C@@H](c1ccnc2ccccc12)[C@H]1C[C@@H]2CCN1C[C@@H]2/C=C/c1cccc(C(F)(F)F)c1,146
12,C=C[C@H]1CN2CC[C@H]1C[C@H]2[C@H](O)c1ccnc2ccccc12 [CINCHONIDINE],207
13,C=C[C@H]1CN2CC[C@H]1C[C@@H]2[C@@H](O)c1ccnc2ccccc12 [CINCHONINE],82
14,C=C[C@H]1CN2CC[C@H]1C[C@@H]2[C@@H](O)c1ccnc2ccc(OC)cc12 [QUINIDINE],90
15,C=C[C@H]1CN2CC[C@H]1C[C@H]2[C@H](O)c1ccnc2ccc(OC)cc12 [QUININE],320

# System: not listed separately
# Assay: Inhibition of beta-hematin formation after 16 hrs at pH 5.2 by microplate reader
# Format: functional
# Details: not given
row,Structure (SMILES),IC50 [nM]
1,O[C@H](c1ccnc2ccccc12)[C@@H]1C[C@@H]2CCN1C[C@@H]2/C=C/c1cccc(C(F)(F)F)c1,75000
2,CCOC(=O)c1ccc(/C=C/[C@H]2CN3CC[C@H]2C[C@@H]3[C@@H](O)c2ccnc3ccc(OC)cc23)cc1,88000
3,CCOC(=O)c1ccc(/C=C/[C@H]2CN3CC[C@H]2C[C@@H]3[C@@H](O)c2ccnc3ccccc23)cc1,66000
4,O[C@@H](c1ccnc2ccccc12)[C@H]1C[C@@H]2CCN1C[C@@H]2/C=C/c1cccc(C(F)(F)F)c1,63000
5,CCN(CC)CCCC(C)Nc1ccnc2cc(Cl)ccc12 (stereo not drawn) [CHLOROQUINE],49000
6,C=C[C@H]1CN2CC[C@H]1C[C@H]2[C@H](O)c1ccnc2ccccc12 [CINCHONIDINE],321000
7,C=C[C@H]1CN2CC[C@H]1C[C@@H]2[C@@H](O)c1ccnc2ccccc12 [CINCHONINE],370000
8,C=C[C@H]1CN2CC[C@H]1C[C@@H]2[C@@H](O)c1ccnc2ccc(OC)cc12 [QUINIDINE],130000
9,C=C[C@H]1CN2CC[C@H]1C[C@H]2[C@H](O)c1ccnc2ccc(OC)cc12 [QUININE],291000

# System: Plasmodium falciparum
# Assay: Ratio of compound IC50 to cinchonine IC50 for chloroquine sensitive Plasmodium falciparum HB3
# Format: functional
# Details: not given
row,Structure (SMILES),Ratio IC50
1,O[C@@H](c1ccnc2ccccc12)[C@H]1C[C@@H]2CCN1C[C@@H]2/C=C/c1ccc(-c2ccccc2)cc1,6
2,CCOC(=O)c1ccc(/C=C/[C@H]2CN3CC[C@H]2C[C@@H]3[C@@H](O)c2ccnc3ccccc23)cc1,6
3,O[C@@H](c1ccnc2ccccc12)[C@H]1C[C@@H]2CCN1C[C@@H]2/C=C/c1ccc(C(F)(F)F)cc1,6
4,O[C@@H](c1ccnc2ccccc12)[C@H]1C[C@@H]2CCN1C[C@@H]2/C=C/c1cccc(C(F)(F)F)c1,6

# System: Plasmodium falciparum
# Assay: Ratio of compound IC50 to quinidine IC50 for […] Plasmodium falciparum Dd2
# Format: functional
# Details: not given
row,Structure (SMILES),Ratio IC50
1,COc1ccc2nccc([C@H](O)[C@H]3C[C@@H]4CCN3C[C@@H]4/C=C/c3ccc(-c4ccccc4)cc3)c2c1,2
2,CCOC(=O)c1ccc(/C=C/[C@H]2CN3CC[C@H]2C[C@@H]3[C@@H](O)c2ccnc3ccc(OC)cc23)cc1,2
3,COc1ccc2nccc([C@H](O)[C@H]3C[C@@H]4CCN3C[C@@H]4/C=C/c3cccc(C(F)(F)F)c3)c2c1,2

# System: not listed separately
# Assay: Inhibition of beta-hematin formation after 16 hrs at pH 5.6 by microplate reader
# Format: functional
# Details: not given
row,Structure (SMILES),IC50 [nM]
1,O[C@H](c1ccnc2ccccc12)[C@@H]1C[C@@H]2CCN1C[C@@H]2/C=C/c1cccc(C(F)(F)F)c1,70000
2,CCOC(=O)c1ccc(/C=C/[C@H]2CN3CC[C@H]2C[C@@H]3[C@@H](O)c2ccnc3ccc(OC)cc23)cc1,40000
3,CCOC(=O)c1ccc(/C=C/[C@H]2CN3CC[C@H]2C[C@@H]3[C@@H](O)c2ccnc3ccccc23)cc1,50000
4,O[C@@H](c1ccnc2ccccc12)[C@H]1C[C@@H]2CCN1C[C@@H]2/C=C/c1cccc(C(F)(F)F)c1,39000
5,CCN(CC)CCCC(C)Nc1ccnc2cc(Cl)ccc12 (stereo not drawn) [CHLOROQUINE],33000
6,C=C[C@H]1CN2CC[C@H]1C[C@H]2[C@H](O)c1ccnc2ccccc12 [CINCHONIDINE],142000
7,C=C[C@H]1CN2CC[C@H]1C[C@@H]2[C@@H](O)c1ccnc2ccccc12 [CINCHONINE],170000
8,C=C[C@H]1CN2CC[C@H]1C[C@@H]2[C@@H](O)c1ccnc2ccc(OC)cc12 [QUINIDINE],23000
9,C=C[C@H]1CN2CC[C@H]1C[C@H]2[C@H](O)c1ccnc2ccc(OC)cc12 [QUININE],34000

# System: Plasmodium falciparum
# Assay: Ratio of compound IC50 to quinidine IC50 for chloroquine sensitive Plasmodium falciparum HB3
# Format: functional
# Details: not given
row,Structure (SMILES),Ratio IC50
1,COc1ccc2nccc([C@H](O)[C@H]3C[C@@H]4CCN3C[C@@H]4/C=C/c3ccc(-c4ccccc4)cc3)c2c1,6
2,CCOC(=O)c1ccc(/C=C/[C@H]2CN3CC[C@H]2C[C@@H]3[C@@H](O)c2ccnc3ccc(OC)cc23)cc1,6
3,COc1ccc2nccc([C@H](O)[C@H]3C[C@@H]4CCN3C[C@@H]4/C=C/c3cccc(C(F)(F)F)c3)c2c1,6

# System: Plasmodium falciparum
# Assay: microbe, parasite or virus in culture
# Format: functional, organism-based
# Details: HB3, 72 h
# Description: Antimalarial activity against chloroquine sensitive Plasmodium falciparum HB3 after 72 hrs by SYBP Green I dye staining
row,Structure (SMILES),IC50 [nM]
1,CCOC(=O)c1ccc(/C=C/[C@H]2CN3CC[C@H]2C[C@H]3[C@H](O)c2ccnc3ccccc23)cc1,590
2,O[C@H](c1ccnc2ccccc12)[C@@H]1C[C@@H]2CCN1C[C@@H]2/C=C/c1ccc(C(F)(F)F)cc1,297
3,O[C@H](c1ccnc2ccccc12)[C@@H]1C[C@@H]2CCN1C[C@@H]2/C=C/c1cccc(C(F)(F)F)c1,394
4,COc1ccc2nccc([C@H](O)[C@H]3C[C@@H]4CCN3C[C@@H]4/C=C/c3ccc(-c4ccccc4)cc3)c2c1,123
5,CCOC(=O)c1ccc(/C=C/[C@H]2CN3CC[C@H]2C[C@@H]3[C@@H](O)c2ccnc3ccc(OC)cc23)cc1,120
6,COc1ccc2nccc([C@H](O)[C@H]3C[C@@H]4CCN3C[C@@H]4/C=C/c3ccc(C(F)(F)F)cc3)c2c1,165
7,COc1ccc2nccc([C@H](O)[C@H]3C[C@@H]4CCN3C[C@@H]4/C=C/c3cccc(C(F)(F)F)c3)c2c1,98
8,O[C@@H](c1ccnc2ccccc12)[C@H]1C[C@@H]2CCN1C[C@@H]2/C=C/c1ccc(-c2ccccc2)cc1,90
9,CCOC(=O)c1ccc(/C=C/[C@H]2CN3CC[C@H]2C[C@@H]3[C@@H](O)c2ccnc3ccccc23)cc1,144
10,O[C@@H](c1ccnc2ccccc12)[C@H]1C[C@@H]2CCN1C[C@@H]2/C=C/c1ccc(C(F)(F)F)cc1,66
11,O[C@@H](c1ccnc2ccccc12)[C@H]1C[C@@H]2CCN1C[C@@H]2/C=C/c1cccc(C(F)(F)F)c1,154
12,C=C[C@H]1CN2CC[C@H]1C[C@H]2[C@H](O)c1ccnc2ccccc12 [CINCHONIDINE],70
13,C=C[C@H]1CN2CC[C@H]1C[C@@H]2[C@@H](O)c1ccnc2ccccc12 [CINCHONINE],22
14,C=C[C@H]1CN2CC[C@H]1C[C@@H]2[C@@H](O)c1ccnc2ccc(OC)cc12 [QUINIDINE],18
15,C=C[C@H]1CN2CC[C@H]1C[C@H]2[C@H](O)c1ccnc2ccc(OC)cc12 [QUININE],81
